Assay results: patent US10570123B2 (SURFACE LOGIX, LLC, priority 2005, dated 2020)

Tests used:
ROCK2 = ROCK2 (Homo sapiens (Human), UniProt O75116); assay: Inhibition of ROCK2; assay type: biochemical; conditions: FIG. 10 legend, qualitative
Description: Methods of determining kinase inhibition are well known in the art. For example, kinase activity of an enzyme and the inhibitory capacity of a test compound can be determined by measuring enzyme specific phosphorylation of a substrate. Commercial assays and kits can be employed. For example, kinase inhibition can be determined using an IMAP® assay (Molecular Devices). This assay method involves the use of a fluorescently-tagged peptide substrate. Phosphorylation of the tagged peptide by a kinase of interest promotes binding of the peptide to a trivalent metal-based nanoparticle via the specific, high affinity interaction between the phospho-group and the trivalent metal. Proximity to the nanoparticle results in increased fluorescence polarization. Inhibition of the kinase by a kinase inhibitor prevents phosphorylation of the substrate and thereby limits binding of the fluorescently-tagged substrate to the nanoparticle. […]
ROCK-II inhibitory activity can be measured using the ROCK-II Assay Kit (Molecular Devices, inc.; Sunnyvale, Calif.).
Inhibition of ROCK2 by various compounds was determined.
Inhibitory activity for Rho kinase was determined for examples of compounds of the present invention. […] For each of these compounds their inhibitory activity for both ROCK 1 and ROCK 2 was determined. […]

PKC = assay: Inhibition of PKC (FIG. 10 comparison); assay type: biochemical; conditions: FIG. 10 legend, qualitative

ROCK2, sequence (O75116 whole entry, species assumed): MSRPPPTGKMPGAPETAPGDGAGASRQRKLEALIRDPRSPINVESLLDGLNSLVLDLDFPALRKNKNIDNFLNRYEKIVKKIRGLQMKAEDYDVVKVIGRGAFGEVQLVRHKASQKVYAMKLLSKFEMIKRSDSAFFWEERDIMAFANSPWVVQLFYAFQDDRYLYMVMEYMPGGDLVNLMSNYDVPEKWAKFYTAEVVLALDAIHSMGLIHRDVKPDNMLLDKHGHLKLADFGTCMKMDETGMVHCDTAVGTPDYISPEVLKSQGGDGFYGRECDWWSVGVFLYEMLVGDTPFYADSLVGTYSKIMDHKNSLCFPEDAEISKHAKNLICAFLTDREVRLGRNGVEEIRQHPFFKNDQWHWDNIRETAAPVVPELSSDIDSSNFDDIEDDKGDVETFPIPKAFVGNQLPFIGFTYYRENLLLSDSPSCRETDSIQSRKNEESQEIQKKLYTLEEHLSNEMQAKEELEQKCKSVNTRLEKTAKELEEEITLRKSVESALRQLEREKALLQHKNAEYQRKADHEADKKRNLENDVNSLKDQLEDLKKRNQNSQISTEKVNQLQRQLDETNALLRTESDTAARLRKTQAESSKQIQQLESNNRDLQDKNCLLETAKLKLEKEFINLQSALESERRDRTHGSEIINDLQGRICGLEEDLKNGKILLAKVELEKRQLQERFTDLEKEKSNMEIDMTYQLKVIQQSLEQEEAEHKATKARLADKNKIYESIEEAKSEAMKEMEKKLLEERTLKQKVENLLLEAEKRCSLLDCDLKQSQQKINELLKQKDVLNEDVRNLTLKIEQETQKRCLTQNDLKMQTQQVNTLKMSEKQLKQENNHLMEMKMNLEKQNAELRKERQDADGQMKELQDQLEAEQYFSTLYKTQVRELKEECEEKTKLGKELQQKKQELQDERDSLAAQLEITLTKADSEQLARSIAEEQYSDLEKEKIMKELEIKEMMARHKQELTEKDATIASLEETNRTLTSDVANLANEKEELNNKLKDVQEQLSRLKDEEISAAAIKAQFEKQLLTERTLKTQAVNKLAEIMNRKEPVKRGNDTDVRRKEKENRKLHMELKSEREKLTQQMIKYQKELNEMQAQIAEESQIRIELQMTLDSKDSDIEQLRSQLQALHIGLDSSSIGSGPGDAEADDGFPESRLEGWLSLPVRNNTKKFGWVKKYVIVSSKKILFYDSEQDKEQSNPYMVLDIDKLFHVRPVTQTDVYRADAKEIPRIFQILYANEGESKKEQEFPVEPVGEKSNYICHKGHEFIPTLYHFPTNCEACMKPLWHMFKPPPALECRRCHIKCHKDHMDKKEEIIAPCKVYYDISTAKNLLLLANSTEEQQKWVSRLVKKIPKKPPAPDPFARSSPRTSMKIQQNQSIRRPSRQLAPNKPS

inhibition of ROCK2 (FIG. 10) (ROCK2)	Compound	inhibition of PKC (FIG. 10) (PKC)
specific inhibition of ROCK2	CC(C)NC(=O)COc1cccc(-c2nc(Nc3ccc4[nH]ncc4c3)c3ccccc3n2)c1 [Example 82, 2-(3-(4-(1H-indazol-5-ylamino)quinazolin-2-yl)phenoxy)-N-isopropylacetamide]	
inhibits	C[C@@H](N)[C@H]1CC[C@H](C(=O)Nc2ccncc2)CC1 [Example Y27632]	inhibits
